Numbers after ± are expanded uncertainties.
Settings: 101.33 kPa, Liquid, Vibrating tube method

SMILES	mass density (283.15 K) [kg/m3]	mass density (288.15 K) [kg/m3]	mass density (298.15 K) [kg/m3]	mass density (303.15 K) [kg/m3]	mass density (313.15 K) [kg/m3]	mass density (323.15 K) [kg/m3]	mass density (333.15 K) [kg/m3]	mass density (343.15 K) [kg/m3]	mass density (353.15 K) [kg/m3]	mass density (278.15 K) [kg/m3]	mass density (293.15 K) [kg/m3]	mass density (308.15 K) [kg/m3]	mass density (318.15 K) [kg/m3]	mass density (328.15 K) [kg/m3]	mass density (338.15 K) [kg/m3]	mass density (348.15 K) [kg/m3]
C[n+]1ccn(CCCCS(=O)(=O)O)c1.O=S(=O)([O-])O [1-methyl-3-(4-sulfobutyl)-imidazolium hydrogensulfate]	1450.3 ± 80	1447.02 ± 80	1437.08 ± 80	1433.68 ± 80	1426.76 ± 80	1420.51 ± 80	1414.28 ± 80	1408.07 ± 80	1401.8 ± 80	–	–	–	–	–	–	–
CCC[n+]1cccc(C)c1.O=S(=O)([N-]S(=O)(=O)C(F)(F)F)C(F)(F)F	1462.43 ± 80	1457.62 ± 80	1448.03 ± 80	1443.28 ± 80	1433.81 ± 80	1424.43 ± 80	1415.16 ± 80	1405.96 ± 80	1396.85 ± 80	1467.23 ± 80	1452.81 ± 80	1438.54 ± 80	1429.11 ± 80	1419.79 ± 80	1409.8 ± 80	1401.4 ± 80
CC(O)C(=O)[O-].CCn1cc[n+](C)c1 [1-ethyl-3-methylimidazolium lactate]	1153.47 ± 7.2	1149.77 ± 7.2	1142.46 ± 7.1	1138.89 ± 7	1131.95 ± 7	1125.07 ± 6.9	1118.51 ± 6.8	1111.66 ± 6.7	1105.14 ± 6.6	1157.45 ± 7.3	1146.11 ± 7.1	1135.43 ± 7	1128.51 ± 6.9	1121.67 ± 6.8	1117.98 ± 6.8	1108.39 ± 6.7
C[n+]1ccn(CCCCS(=O)(=O)O)c1.O=S(=O)([N-]S(=O)(=O)C(F)(F)F)C(F)(F)F	1597.92 ± 80	1592.96 ± 80	1582.58 ± 80	1577.87 ± 80	1568.52 ± 80	1559.23 ± 80	1550.01 ± 80	1541.12 ± 80	1532.23 ± 80	–	1587.85 ± 80	1573.18 ± 80	1563.87 ± 80	1554.6 ± 80	1545.56 ± 80	1536.68 ± 80

— the NIST ThermoML archive (doi:10.1016/j.fluid.2016.03.009)
